From PMC4644980, “The FDA-approved natural product dihydroergocristine reduces the production of the Alzheimer’s disease amyloid-β peptides” (Scientific Reports, 2015)
“And” between values parts separate entries of the source, which are not always exact repeats. Equal values may be shown once. Where a name gives a salt, the structure may show the parent alone.

How the values were obtained:
[1] = tested on: γ-secretase subunits (mNCT, PS1-NTF); test: Western blot of γ-secretase subunits in HEK293 or fibroblast cells; type: cell-based
Experimental: for 10 min before adding 25 µl of the stop solution. The fluorescence was monitored with a microplate reader (emission at 590 nm after excitation at 560 nm).
Western blot and antibodies
WT HEK293 or fibroblast cells were collected and lysed in 1% Nonidet P-40-HEPES buffer, and equal amounts of proteins [normalized by BCA (Pierce)] were separated by SDS-PAGE onto a 12% Tris-glycine gel, transferred onto a PVDF membrane (Bio-Rad, USA) and further probed with antibody CT15 (for APP/APP-CTFs, 1:2000, […]
(1:1000; Abcam, Cambridge, MA, USA) for PS1-NTF, UD-1 (for Pen-2, 1:500; a gift of Dr. Helena Karlström, Karolinska Institute, Sweden), NCT164 (for NCT, 1:1000; BD Bioscience, Bedford, MA, USA) as well as with an antibody for β-actin (1:2000, Abmart). For the analysis of Notch NICD, cell extracts were separated by SDS-PAGE onto a 10% Tris-glycine gel, transferred onto a PVDF membrane and blotted for NICD with an anti-Notch Ab1744 antibody (for the free N-terminus of NICD, 1:500, Cell Signaling Technology, Beverly, MA, USA).
Samples from in vitro γ-secretase activity assays were run on 16% Tricine-SDS-PAGE gels and transferred onto PVDF to detect Aβ and AICD-Flag with 6E10 (1:1000, Covance, Berkeley, CA, USA) and CT15 antibodies (1:5000, Sigma-Aldrich), […]

[2] = biological target: γ-secretase (Homo sapiens, UniProt P49768+Q92542); test: cell-based luciferase reporter assay for γ-secretase inhibition (T100 cells); set-up: endogenous in cells; host or cells: T-REx HeLa cells (T100) stably transfected with the substrate C99-Gal4-VP16 and a luciferase reporter; details: 24 h, read-out: IC50 for inhibiting the activity of γ-secretase in T100 cells
Experimental: To identify natural product-based bioactive inhibitors of γ-secretase, we screened 417 natural products by using a cell-based luciferase reporter assay for γ-secretase inhibition (T100, see Methods), which we recently developed in TREx HeLa cells according to the methodology described in ref. [17]. […] Thus, this assay is sufficiently sensitive to detect the inhibitory effects of 100 nM DAPT on cellular γ-secretase activity. Additionally, this new cell-based assay tolerated up to 2% DMSO, which is a great advantage when screening inhibitors in a high-throughput format.
T-REx-HeLa cells (T100) stably overexpressing C99-Gal4-VP16 and luciferase were generated according to the method described in refs [17],[30]. For details, see Supplementary Information.
Cell-based γ-secretase assays were performed using the T100 cell line according to the methods detailed in ref. [30] (for details, see Supplementary information). […]
concentrations of substrate at 37 °C for 4 h, after which the enzymatic reactions were stopped by adding 0.5% SDS (final concentration). The samples were analyzed by Western Blot for AICD-Flag or Aβ. […]

SMILES: CC(C)[C@@]1(NC(=O)[C@@H]2C[C@@H]3c4cccc5[nH]cc(c45)C[C@H]3N(C)C2)O[C@@]2(O)[C@@H]3CCCN3C(=O)[C@H](Cc3ccccc3)N2C1=O [DHEC, Dihydroergocristine methanesulfonate salt]
- assembly and maturation of the protease complex (mNCT, PS1-NTF) [1]: not altered
- IC50 [2]: 20 µM and ~25 µM
